We go through 30 compounds from patent publication US8916183B2, “Pesticidal compositions and processes related thereto” (priority 2012, dated 2014).

Common to all, as to type: in vivo
Data set [1] concerns Beet Armyworm (BAW) (Spodoptera exigua). Nature of the data set: Bioassay on beet armyworm (BAW), 128-well diet tray assay. The settings on record: beet armyworm, 50 μg/cm^2; for mortality at 50 µg/cm2: Spodoptera exigua, read-out: % Mortality BAW 50 μg/cm^2.
Data set [2] deals with Green Peach Aphid (GPA) (Myzus persicae). Nature of the data set: Bioassay on green peach aphid (GPA), foliar spray on cabbage seedlings. To be noted: green peach aphid, 200 ppm, read-out: % Mortality GPA 200 ppm. Here is the method:
Certain molecules disclosed in this document were tested against GPA using procedures described in the following example. In the reporting of the results, the “GPA Rating Table” was used (See Table Section).
Cabbage seedlings grown in 3-inch pots, with 2-3 small (3-5 cm) true leaves, were used as test substrate. The seedlings were infested with 20-50 GPA (wingless adult and nymph stages) one day prior to chemical application. Four pots with individual seedlings were used for each treatment. Test compounds (2 mg) were dissolved in 2 mL of acetone/methanol (1:1) solvent, forming stock solutions of 1000 ppm test compound. […] A hand-held aspirator-type sprayer was used for spraying a solution to both sides of […] leaves until runoff. Reference plants (solvent check) were sprayed with the diluent only containing 20% by volume of acetone/methanol (1:1) solvent. Treated plants were held in a holding room for three days at approximately 25° C. and ambient relative humidity (RH) prior to grading. Evaluation was conducted by counting the number of live aphids per plant under a microscope. […] Corrected % Control=100*(X−Y)/X • where • X=No. of live aphids on solvent check plants and • Y=No. of live aphids on treated plants
The results are indicated in the table entitled “Table 5: Biological Results” (See Table Section).

The subject of data set [3] is Corn Earworm (CEW) (Helicoverpa zea). Nature of the data set: Bioassay on corn earworm (CEW), 128-well diet tray assay. To be noted: corn earworm, 50 μg/cm^2; for mortality at 50 µg/cm2: Helicoverpa zea, read-out: % Mortality CEW 50 μg/cm^2. A digest of the protocol: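 Larvae in a 128-well diet tray were held at 25° C under 14:10 light-dark for five to seven days. Percent mortality was scored per well and averaged over eight wells, then reported on a rating scale.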

In the case of `Cc1cccc(C)c1/N=C(/N/N=C/c1ccc(-c2ncn(-c3ccc(OC(F)(F)F)cc3)n2)cc1)SCC(=O)NCC(NC(=O)OC(C)(C)C)C(=O)O` (stereo not drawn) [Compound 59C], the mortality at 50 µg/cm2 in data set [1] and in data set [3] was 50 to 100% each time. Also, the mortality at 200 ppm in data set [2] fell in the range of 0 to 80%.
For `COc1cc(C)c(/N=C(/N/N=C/c2ccc(-c3ncn(-c4ccc(OC(F)(F)F)cc4)n3)cc2)SCC(=O)NCCCNC(=O)OC(C)(C)C)c(C)c1` [Compound 60C], the mortality at 50 µg/cm2 in data set [1] and in data set [3] was 50 to 100% in each case. For the same compound, the mortality at 200 ppm in data set [2] amounted to 0%.
`Cc1cccc(C)c1/N=C(/N/N=C/c1ccc(-c2ncn(-c3ccc(OC(F)(F)F)cc3)n2)cc1)SCC(=O)NC[C@@H]1CCCNC1` [Compound 62C, (1Z,2E)-2-oxo-2-(((R)-piperidin-3-ylmethyl)amino)ethyl N-(2,6-dimethylphenyl)-2-(4-(1-(4-(trifluoromethoxy)phenyl)-1H-1,2,4-triazol-3-yl)benzylidene)hydrazinecarbimidothioate trifluoroacetic acid]: the mortality at 50 µg/cm2 in data set [1] and in data set [3] was 50 to 100% in each case. For the same compound, in data set [2], the mortality at 200 ppm lay in the range of 0 to 80%.
Turning to `Cc1cccc(C)c1/N=C(/N/N=C/c1ccc(-c2ncn(-c3ccc(OC(F)(F)F)cc3)n2)cc1)SCC(=O)NCC(N)C(=O)O` (stereo not drawn) [Compound 63C], the mortality at 50 µg/cm2 in data set [1] and in data set [3] was 50 to 100% in each case. Besides, the mortality at 200 ppm in data set [2] was determined as 0%.
With `COc1cc(C)c(/N=C(/N/N=C/c2ccc(-c3ncn(-c4ccc(OC(F)(F)F)cc4)n3)cc2)SCC(=O)NCCCN)c(C)c1` [Compound 64C], the mortality at 50 µg/cm2 in data set [1] and in data set [3] was 50 to 100% throughout. The mortality at 200 ppm in data set [2] worked out at 0%.
As to `COc1cc(C)c(/N=C(/N/N=C/c2ccc(-c3ncn(-c4ccc(OC(F)(F)F)cc4)n3)cc2)SCC(=O)C2CCNCC2)c(C)c1` [Compound 65C], the mortality at 50 µg/cm2 in data set [1] and in data set [3] was 50 to 100% in each case. Moreover, in data set [2], the mortality at 200 ppm fell in the range of 0 to 80%.
For `Cc1cccc(C)c1/N=C(/N/N=C/c1ccc(-c2ncn(-c3ccc(OC(F)(F)F)cc3)n2)cc1)SCC(=O)NCCCN` [Compound 66C], the mortality at 50 µg/cm2 in data set [1] and in data set [3] was 50 to 100% throughout. In data set [2], the mortality at 200 ppm lay in the range of 0 to 80%.
Consider `Cc1cccc(C)c1/N=C(/N/N=C/c1ccc(-c2ncn(-c3ccc(OC(F)(F)F)cc3)n2)cc1)SCC(=O)N1CCNCC1` [Compound 67C], for which the mortality at 50 µg/cm2 in data set [1] and in data set [3] was 50 to 100% in each case. The mortality at 200 ppm in data set [2] was determined as 0%.
`COc1cc(C)c(/N=C(/N/N=C/c2ccc(-c3ncn(-c4ccc(OC(F)(F)F)cc4)n3)cc2)SCC(=O)O)c(C)c1.[Na+]` [Compound 68C, 2-(((Z)-((4-methoxy-2,6-dimethylphenyl)imino)((E)-2-(4-(1-(4-(trifluoromethoxy)phenyl)-1H-1,2,4-triazol-3-yl)benzylidene)hydrazinyl)methyl)-thio)acetic acid sodium salt]: the “% Mortality BAW 50 μg/cm^2” value in data set [1] was “A (50-100)”. The mortality at 200 ppm in data set [2] is 0 to 80%. Moreover, the “% Mortality CEW 50 μg/cm^2” value in data set [3] is given as “A (50-100)”.
Take `O=C1CS/C(=N\N=C\c2ccc(-c3ncn(-c4ccc(OC(F)(F)F)cc4)n3)cc2)N1c1c(Cl)cccc1Cl` [Compound 70C]: the mortality at 50 µg/cm2 in data set [1] and in data set [3] was 50 to 100% throughout. The mortality at 200 ppm in data set [2] came to 0%.
For `Cc1cccc(C)c1N1C(=O)CS/C1=N\N=C\c1ccc(-c2ncn(-c3ccc(OC(F)(F)F)cc3)n2)cc1` [Compound 71C], the mortality at 50 µg/cm2 in data set [1] and in data set [3] was 50 to 100% throughout. Besides, in data set [2], the mortality at 200 ppm came out at 0%.
For `Cc1cc(C)c(N2C(=O)CS/C2=N\N=C\c2ccc(-c3ncn(-c4ccc(OC(F)(F)F)cc4)n3)cc2)c(C)c1` [Compound 72C], the mortality at 50 µg/cm2 in data set [1] and in data set [3] was 50 to 100% in each case. The mortality at 200 ppm in data set [2] is 0 to 80%.
For `CCN(CC)c1ccc(-c2cs/c(=N\N=Cc3ccc(-c4ncn(-c5ccc(OC(F)(F)F)cc5)n4)cc3)n2-c2c(C)cccc2C)cc1` [Compound 74C], the mortality at 50 µg/cm2 in data set [1] and in data set [3] was 50 to 100% in each case. Moreover, the mortality at 200 ppm in data set [2] is 0%.
In the case of `Cc1cccc(C)c1-n1c(-c2nccs2)cs/c1=N\N=Cc1ccc(-c2ncn(-c3ccc(OC(F)(F)F)cc3)n2)cc1` [Compound 75C], the mortality at 50 µg/cm2 in data set [1] and in data set [3] was 50 to 100% throughout. The mortality at 200 ppm in data set [2] was in the range of 0 to 80%.
For `Cc1cccc(C)c1-n1c(-c2cc(-c3ccc(Cl)cc3)no2)cs/c1=N\N=C\c1ccc(-c2ncn(-c3ccc(OC(F)(F)F)cc3)n2)cc1` [Compound 76C], the mortality at 50 µg/cm2 in data set [1] and in data set [3] was 50 to 100% each time. In addition, the mortality at 200 ppm in data set [2] fell in the range of 0 to 80%.
Regarding `Cc1cccc(C)c1-n1c(-c2ccc(C(=O)O)cc2)cs/c1=N\N=Cc1ccc(-c2ncn(-c3ccc(OC(F)(F)F)cc3)n2)cc1` [Compound 77C], the mortality at 50 µg/cm2 in data set [1] and in data set [3] was 50 to 100% throughout. Further, the mortality at 200 ppm in data set [2] lay within 0 to 80%.
Consider `Cc1cccc(C)c1-n1c(-c2ccc(OC(F)(F)F)cc2)cs/c1=N\N=Cc1ccc(-c2ncn(-c3ccc(OC(F)(F)F)cc3)n2)cc1` [Compound 78C], for which the mortality at 50 µg/cm2 in data set [1] and in data set [3] was 50 to 100% throughout. Besides, in data set [2], the mortality at 200 ppm lay in the range of 0 to 80%.
In the case of `Cc1cccc(C)c1-n1c(-c2ccc(C(F)(F)F)cc2)cs/c1=N\N=Cc1ccc(-c2ncn(-c3ccc(OC(F)(F)F)cc3)n2)cc1` [Compound 79C], the mortality at 50 µg/cm2 in data set [1] and in data set [3] was 50 to 100% each time. Besides, in data set [2], the mortality at 200 ppm lay within 0 to 80%.
As for `COc1cc(C)c(-n2c(C(=O)O)cs/c2=N\N=Cc2ccc(-c3ncn(-c4ccc(OC(F)(F)F)cc4)n3)cc2)c(C)c1` [Compound 80C], the mortality at 50 µg/cm2 in data set [1] and in data set [3] was 50 to 100% each time. Moreover, the mortality at 200 ppm in data set [2] was determined as 0%.
As for `Cc1cccc(C)c1/N=C1\SCC(=O)N1/N=C/c1ccc(-c2ncn(-c3ccc(OC(F)(F)F)cc3)n2)cc1` [Compound 81C], the mortality at 50 µg/cm2 in data set [1] and in data set [3] was 50 to 100% throughout. In addition, in data set [2], the mortality at 200 ppm was found to be 0%.
In the case of `CC1S/C(=N\N=C\c2ccc(-c3ncn(-c4ccc(OC(F)(F)F)cc4)n3)cc2)N(c2ccccc2C(C)C)C1=O` (stereo not drawn) [Compound 88C], the mortality at 50 µg/cm2 in data set [1] and in data set [3] was 50 to 100% throughout. Moreover, the mortality at 200 ppm in data set [2] lay within 0 to 80%.
Turning to `O=C1CS/C(=N\N=C\c2ccc(-c3ncn(-c4ccc(OC(F)(F)F)cc4)n3)cc2)N1c1c(F)cccc1F` [Compound 89C], the mortality at 50 µg/cm2 in data set [1] and in data set [3] was 50 to 100% each time. Further, the mortality at 200 ppm in data set [2] came to 0%.
In the case of `COc1ccccc1N1C(=O)CS/C1=N\N=C\c1ccc(-c2ncn(-c3ccc(OC(F)(F)F)cc3)n2)cc1` [Compound 92C], the mortality at 50 µg/cm2 in data set [1] and in data set [3] was 50 to 100% each time. Moreover, the mortality at 200 ppm in data set [2] lay in the range of 0 to 80%.
On to `Cc1cccc(Cl)c1N1C(=O)CS/C1=N\N=C\c1ccc(-c2ncn(-c3ccc(OC(F)(F)F)cc3)n2)cc1` [Compound 93C], for which the mortality at 50 µg/cm2 in data set [1] and in data set [3] was 50 to 100% throughout. Besides, the mortality at 200 ppm in data set [2] came to 0%.
Take `CCc1ccccc1N1C(=O)CS/C1=N\N=C\c1ccc(-c2ncn(-c3ccc(OC(F)(F)F)cc3)n2)cc1` [Compound 94C]: the mortality at 50 µg/cm2 in data set [1] and in data set [3] was 50 to 100% each time. Also, the mortality at 200 ppm in data set [2] amounted to 0%.
Turning to `O=C1CS/C(=N\N=C\c2ccc(-c3ncn(-c4ccc(OC(F)(F)F)cc4)n3)cc2)N1c1c(F)cccc1Cl` [Compound 95C], the mortality at 50 µg/cm2 in data set [1] and in data set [3] was 50 to 100% each time. Also, in data set [2], the mortality at 200 ppm is 0 to 80%.
As to `O=C1CS/C(=N\N=C\c2ccc(-c3ncn(-c4ccc(OC(F)(F)F)cc4)n3)cc2)N1c1ccccc1-c1ccccc1` [Compound 96C], the mortality at 50 µg/cm2 in data set [1] and in data set [3] was 50 to 100% in each case. For the same compound, in data set [2], the mortality at 200 ppm was in the range of 0 to 80%.
`CCC(C)c1ccccc1N1C(=O)CS/C1=N\N=C\c1ccc(-c2ncn(-c3ccc(OC(F)(F)F)cc3)n2)cc1` (stereo not drawn) [Compound 108C]: the mortality at 50 µg/cm2 in data set [1] and in data set [3] was 50 to 100% each time. The mortality at 200 ppm in data set [2] is 0%.
Consider `CCc1cccc(C)c1N1C(=O)CS/C1=N\N=C\c1ccc(-c2ncn(-c3ccc(OC(F)(F)F)cc3)n2)cc1` [Compound 111C], for which the mortality at 50 µg/cm2 in data set [1] and in data set [3] was 50 to 100% in each case. For the same compound, the mortality at 200 ppm in data set [2] fell in the range of 0 to 80%.
Consider `O=C1CS/C(=N\N=C\c2ccc(-c3ncn(-c4ccc(OC(F)(F)F)cc4)n3)cc2)N1c1ccccc1C1CC1` [Compound 112C], for which the mortality at 50 µg/cm2 in data set [1] and in data set [3] was 50 to 100% in each case. Also, the mortality at 200 ppm in data set [2] is 0 to 80%.
